Data: PMC10558427, “A Theobromine Derivative with Anticancer Properties Targeting VEGFR‐2: Semisynthesis, in silico and in vitro Studies” (ChemistryOpen, 2023)

Target: T1, VEGFR‐2 (Homo sapiens, UniProt P35968)
T1 construct: gene KDR
Assay: in vitro VEGFR-2 inhibition assay (Human VEGFR ELISA kit)
Format: biochemical

T1 sequence (P35968 20-1356): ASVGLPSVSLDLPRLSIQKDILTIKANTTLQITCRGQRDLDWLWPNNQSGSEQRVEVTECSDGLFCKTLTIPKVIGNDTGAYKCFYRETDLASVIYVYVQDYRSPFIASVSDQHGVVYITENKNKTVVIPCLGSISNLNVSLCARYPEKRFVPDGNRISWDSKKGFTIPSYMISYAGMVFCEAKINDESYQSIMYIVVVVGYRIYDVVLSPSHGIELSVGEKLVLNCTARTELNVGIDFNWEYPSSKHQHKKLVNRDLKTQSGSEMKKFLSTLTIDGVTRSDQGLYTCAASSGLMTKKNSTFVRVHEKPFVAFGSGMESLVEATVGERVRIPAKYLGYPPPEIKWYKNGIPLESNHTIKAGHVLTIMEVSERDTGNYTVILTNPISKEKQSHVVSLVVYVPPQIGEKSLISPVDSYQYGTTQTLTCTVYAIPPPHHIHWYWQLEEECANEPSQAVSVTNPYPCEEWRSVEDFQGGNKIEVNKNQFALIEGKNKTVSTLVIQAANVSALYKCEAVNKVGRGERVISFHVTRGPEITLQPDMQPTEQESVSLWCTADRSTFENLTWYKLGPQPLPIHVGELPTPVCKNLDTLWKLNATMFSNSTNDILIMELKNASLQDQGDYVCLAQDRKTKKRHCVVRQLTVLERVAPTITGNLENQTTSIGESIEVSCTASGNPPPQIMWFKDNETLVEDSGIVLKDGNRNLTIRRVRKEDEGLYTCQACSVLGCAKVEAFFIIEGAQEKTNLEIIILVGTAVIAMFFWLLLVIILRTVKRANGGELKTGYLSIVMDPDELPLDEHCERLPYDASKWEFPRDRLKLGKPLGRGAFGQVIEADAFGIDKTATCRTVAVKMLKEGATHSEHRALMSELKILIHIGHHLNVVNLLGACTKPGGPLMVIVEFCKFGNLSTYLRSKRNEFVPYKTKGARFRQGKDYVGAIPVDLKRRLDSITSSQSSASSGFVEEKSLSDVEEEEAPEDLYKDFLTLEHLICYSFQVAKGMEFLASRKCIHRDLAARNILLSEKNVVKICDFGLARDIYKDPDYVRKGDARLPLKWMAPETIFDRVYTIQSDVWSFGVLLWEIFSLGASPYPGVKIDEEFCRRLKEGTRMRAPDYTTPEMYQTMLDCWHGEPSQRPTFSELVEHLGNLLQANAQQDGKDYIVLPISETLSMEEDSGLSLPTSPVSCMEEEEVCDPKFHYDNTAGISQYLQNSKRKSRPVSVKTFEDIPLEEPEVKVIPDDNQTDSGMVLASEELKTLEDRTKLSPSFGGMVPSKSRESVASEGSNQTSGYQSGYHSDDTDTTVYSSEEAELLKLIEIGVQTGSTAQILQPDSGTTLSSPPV

IC50: 69 ± 3 nM
Compound: Cn1cnc2c1c(=O)n(CC(=O)Nc1ccc(C(=O)Nc3ccc(F)cc3)cc1)c(=O)n2C [T-1-AFPB, 4‐(2‐(3,7‐Dimethyl‐2,6‐dioxo‐2,3,6,7‐tetrahydro‐1H‐purin‐1‐yl)acetamido)‐N‐(4‐fluorophenyl)benzamide]
